System: sows
Assay: Example 1: top dress with a single ingredient fed to pregnant sows from day 80 of gestation to parturition; colostrum intake and gain of litters
Assay type: in vivo, pigs
Settings: for Total colostrum intake per litter / Average daily gain to day 7, kg per litter: corrected for litter size, sorbic acid 5 g; for Total colostrum intake per litter: 100 g/day top dress, day 80 of gestation up to parturition, betaine 3 g daily, estimated by Theil et al. algorithm; for Average daily gain to day 7, kg per litter: betaine 3 g daily in 100 g top dress

| SMILES | Average daily gain to day 7 compared to the control (in words) | Colostrum intake per litter compared to the control (in words) | Total colostrum intake per litter [g] | Average daily gain to day 7, kg per litter [kg per litter] |
| --- | --- | --- | --- | --- |
| CC=CC=CC(=O)O [Sorbic acid, 2,4-hexadienoic acid] | same result as the control | slightly lower | 6227 | 18.2 |
| C[N+](C)(C)CC(=O)[O-] [Betaine, trimethylglycine] | negative effect | substantially lower | 5784 | 16.1 |

Source: patent publication US12186289B2, “Compositions for feeding a pregnant animal” (Nutreco IP Assets B.V., priority 2018, dated 2025)
